Format in all cases: cell-based, human
Test [1] deals with KRAS G12C mutant NCI-H358 cells. Description: Cell proliferation inhibition experiment, 3D spheroid, CellTiter-Glo, NCI-H358. The settings on record: NCI-H358 (KRAS G12C mutant) 3D spheroid, 5 days with compound, CellTiter-Glo, read-out: H358 IC50. The text has this:
(§1) Raw materials and instruments: NCI-H358 purchased from ATCC; article number: CRL-5807; batch number: 70010825; A549 purchased from ATCC; article number: CCL-185; batch number: 70007820; RPMI1640 purchased from Gibco; article number: 11875-093; batch number: 2152748; F-12K purchased from Gibco; article number: 21127-022; batch number: 2185853; FBS purchased from Gibco; article number: 10099-141; batch number: 2109290CP; PS purchased from Gibco; article number: 15140-122; batch number: 2145451; Trypsin-EDTApurchased from Gibco; article number: 25200-072; batch number: 2085552; CellTiter Glo working solution purchased from Promega; article number: G9683; batch number: 398478; DMSO purchased from VWR AMRESCO; article number: 0231-500ML; batch number: 18C0656168; 384-well spheroid plate purchased from Corning; article number: 3830; batch number: 27519032; white opaque 384-well plate purchased from Corning; article number: 3570; batch number: 26819023; microplate reader purchased from PerkinElmer; model: Envision MLD2105-0020; equipment number 1050369.
(§2) NCI-H358 is a KRAS G12C mutant human non-small cell lung cancer cell line, cultured in 10% FBS RPMI-1640+1% PS culture medium; and A549 is a KRAS G12S mutant human lung adenocarcinoma cell line, cultured in 10% FBS F-12K+1% PS culture medium. Cells at logarithmic growth stage were taken, digested with trypsin-EDTA, then collected and counted. H358 was adjusted to 1.8 E4 cells/mL with 2% FBS RPMI-1640 culture medium, and A549 was adjusted to 8.9 E3 cells/mL with 2% FBS F-12K culture medium; 800 (45 μL) H358 or 400 (45 μL) A549 were inoculated respectively in a 384-well spheroid plate and cultured overnight to establish a 3D cell model. A 3.16-fold gradient concentration stock solution of 1000× compound was prepared with DMSO, and diluted 100-fold to 10× compound stock solution with 2% FBS culture medium. On the second day after cell inoculation, 5 μL of 10× compound stock solution was added to each cell culture well, with a final concentration of 1× and a DMSO content of 0.1%. DMSO was used as experimental control (control), and 2% FBS culture medium was used as blank control (blank). After 5 days of compound cell culture, 25 μL of CellTiter-Glo working solution was added to each well, mixed well at 400 rpm and incubated for 30 minutes. After standing at room temperature for 30 minutes, 40 μL of the mixed solution was transferred to a white opaque 384-well plate, and the luminescence chemiluminescence value was read with a microplate reader. The cell proliferation inhibition rate IR (%)=(RLU control -RLU compound)/(RLU control -RLU blank) x100% was calculated. The gradient dilution concentration of the compound and the corresponding cell proliferation inhibition rate were fitted by Prism 6 four-parameter method, and the IC50 value was calculated. The inhibitory activity of the compounds prepared in the above embodiments of the present disclosure on KRAS G12C mutant NCI-H358 cells was 0.0001 μM to 0.5 μM; the inhibitory activity of some compounds on KRAS G12C mutant NCI-H358 cells was 0.001 μM to 0.1 μM or 0.001 μM to 0.05 μM.

The subject of test [2] is KRAS G12C mutant MIA PaCa-2 cells. In words: Cell proliferation inhibition experiment, 3D spheroid, CellTiter-Glo, MIA PaCa-2. The settings on record: Homo sapiens, MIA PaCa-2, 120 h, 3D cell model in 384-well spheroid plate, 5 days, CellTiter-Glo; read-out: MIA-PaCa2 IC50. The source says:
Raw materials and instruments: MIA PaCa-2 purchased from ATCC; article number: CRL-1420; batch number: 63143594; DMEM purchased from Gibco; article number: 11995-065; batch number: 2186878; FBS purchased from Gibco; article number: 10099-141; batch number: 2109290CP; Horse Serum purchased from Gibco; article number: 16050-122; batch number: 1818976; PS purchased from Gibco; article number: 15140-122; batch number: 2145451; Trypsin-EDTA purchased from Gibco; article number: 25200-072; batch number: 2085552; CellTiter Glo working solution purchased from Promega; article number: G9683; batch number 398478; DMSO purchased from VWR AMRESCO; article number: 0231-500ML; batch number: 18C0656168; 384-well spheroid plate purchased from Corning; article number: 3830; batch number: 27519032; white opaque 384-well plate purchased from Corning; article number: 3570; batch number: 26819023; microplate reader purchased from PerkinElmer; model: Envision MLD2105-0020; equipment number 1050369.
MIA PaCa-2 is a KRAS G12C mutant human pancreatic cancer cell line, cultured in 10% FBS+2.5% Horse Serum DMEM+1% PS culture medium; cells at logarithmic growth stage were taken, digested with trypsin-EDTA, then collected and counted, and 200 MIA PaCa-2 were inoculated in a 384-well spheroid plate, respectively, and cultured overnight to establish a 3D cell model. A 3.16-fold gradient concentration stock solution of 1000× compound was prepared with DMSO, and diluted 100-fold to 10× compound stock solution with culture medium. On the second day after cell inoculation, 10× compound stock solution was added to each cell culture well, with a final concentration of 1× and a DMSO content of 0.1%. DMSO was used as experimental control (control), and culture medium was used as blank control (blank). After 5 days of compound cell culture, 30 μL of CellTiter-Glo working solution was added to each well, mixed well and incubated for 30 minutes. After standing at room temperature for 30 minutes, 40 μL of the mixed solution was transferred to a white opaque 384-well plate, and the luminescence chemiluminescence value was read with a microplate reader. The cell proliferation inhibition rate IR (%)=(RLU control -RLU compound)/(RLU control−RLU blank)×100% was calculated. The gradient dilution concentration of the compound and the corresponding cell proliferation inhibition rate were fitted by XLFit four-parameter method, and the IC50 value was calculated. The inhibitory activity of the compounds prepared in the above embodiments of the present disclosure on KRAS G12C mutant MIA PaCa-2 cells was 0.0001 μM to 0.5 μM; the inhibitory activity of some compounds on KRAS G12C mutant MIA PaCa-2 cells was 0.001 μM to 0.1 μM or 0.001 μM to 0.05 μM.

Test [3] relates to A549 cells (KRAS G12S mutant). Description: Cell proliferation inhibition experiment, 3D spheroid, CellTiter-Glo, A549. The settings on record: A549 (KRAS G12S mutant) 3D spheroid, 5 days with compound, CellTiter-Glo, read-out: A549 IC50.
Description: as §1, §2
Background: ATP-based viability assays read luminescence as a measure of living cells.

Like-named read-outs stand apart in the source and are kept apart here. Where only a bound is given, the exact number is not on record here.

The term IC50 denotes the concentration at which inhibition is half-maximal.

Regarding `C=CC(=O)N1CCN2C(=O)c3c(N4C[C@](C)(O)CC4(C)C)nc(-c4c(O)cccc4F)c(F)c3OC[C@H]2C1` (single isomer, unassigned) [Z256b-2], the IC50 in test [1] (Homo sapiens, NCI-H358, 120 h) is 44.7 nM; in test [2] it was 105 nM.
As to `C=CC(=O)N1CCN2C(=O)c3c(N4CCN5C(=O)CC[C@H]5C4)nc(-c4c(O)cccc4F)c(Cl)c3OC[C@H]2C1` (single isomer, unassigned) [Z317a-1], the half-maximal inhibitory concentration (IC50) in test [1] (Homo sapiens, NCI-H358, 120 h) was 145 nM; in test [3] (Homo sapiens, A549, 120 h), more than 30000 nM.
As for `C=CC(=O)N1CCN2C(=O)c3c(N4CCN5C(=O)CC[C@@H]5C4)nc(-c4c(O)cccc4F)c(Cl)c3OC[C@H]2C1` (single isomer, unassigned) [Z317a-2], the IC50 in test [1] (Homo sapiens, NCI-H358, 120 h) was 108 nM; in test [3] (Homo sapiens, A549, 120 h), more than 30000 nM.
Regarding `C=CC(=O)N1CCN2C(=O)c3c(Nc4c(C)ccnc4C(C)C)nc(-c4ccccc4F)c(Cl)c3OC[C@H]2C1` [Z8, (R)-8-acryloyl-4-chloro-3-(2-fluorophenyl)-1-((2-isopropyl-4-methylpyridin-3-yl)amino)-6,6a,7,8,9,10-hexahydro-12H-pyrazino[2,1-c]pyrido[3,4-f][1,4]oxazepin-12-one], the 50% inhibitory concentration (IC50) in test [1] (Homo sapiens, NCI-H358, 120 h) was 51 nM; in test [2], 232 nM; in test [3] (Homo sapiens, A549, 120 h), 5090 nM.
For the compound `C=CC(=O)N1CCN2C(=O)c3c(OC[C@H]4CCCN4C)nc(-c4c(O)cccc4F)c(Cl)c3OC[C@H]2C1` [Z13, (6aR)-8-acryloyl-4-chloro-3-(2-fluoro-6-hydroxyphenyl)-1-(((R)-1-methylpyrrolidin-2-yl)methoxy)-6,6a,7,8,9,10-hexahydro-12H-pyrazino[2,1-c]pyrido[3,4-f][1,4]oxazepin-12-one], the half-maximal inhibitory concentration (IC50) in test [1] (Homo sapiens, NCI-H358, 120 h) was 51 nM; in test [3] (Homo sapiens, A549, 120 h) it was more than 5000 nM.
With `C=CC(=O)N1CCN2C(=O)c3c(Nc4c(C)c(Cl)nn4C(C)C)nc(-c4c(O)cccc4F)c(Cl)c3OC[C@H]2C1` [Z16, (6aR)-8-acryloyl-4-chloro-1-((3-chloro-1-isopropyl-4-methyl-1H-pyrazol-5-yl)amino)-3-(2-fluoro-6-hydroxyphenyl)-6,6a,7,8,9,10-hexahydro-12H-pyrazino[2,1-c]pyrido[3,4-f][1,4]oxazepin-12-one], the half-inhibitory concentration (IC50) was 37 nM in test [1] (Homo sapiens, NCI-H358, 120 h) and more than 1000 nM in test [3] (Homo sapiens, A549, 120 h).
Take `C=CC(=O)N1CCN2C(=O)c3c(N4CCS(=O)(=O)CC4)nc(-c4c(O)cccc4F)c(Cl)c3OC[C@H]2C1` [Z26, (6aR)-8-acryloyl-4-chloro-1-(1,1-dioxidothiomorpholino)-3-(2-fluoro-6-hydroxyphenyl)-6,6 a,7,8,9,10-hexahydro-12H-pyrazino[2,1-c]pyrido[3,4-f][1,4]oxazepin-12-one]: the half-maximal inhibitory concentration (IC50) in test [1] (Homo sapiens, NCI-H358, 120 h) was 479 nM; in test [3] (Homo sapiens, A549, 120 h) it was more than 30000 nM.
Consider `C=CC(=O)N1CCN2C(=O)c3c(N4CCC(N(C)C)CC4)nc(-c4c(O)cccc4F)c(Cl)c3OC[C@H]2C1` [Z31, (6aR)-8-acryloyl-4-chloro-1-(4-(dimethylamino)piperidin-1-yl)-3-(2-fluoro-6-hydroxyphenyl)-6,6a,7,8,9,10-hexahydro-12H-pyrazino[2,1-c]pyrido[3,4-f][1,4]oxazepin-12-one], for which the IC50 in test [1] (Homo sapiens, NCI-H358, 120 h) is 176 nM; in test [3] (Homo sapiens, A549, 120 h), more than 30000 nM.
The matching figures for `C=CC(=O)N1CCN2C(=O)c3c(NC(=O)CC(C)(C)C)nc(-c4c(O)cccc4F)c(Cl)c3OC[C@H]2C1` [Z33, N-((6aR)-8-acryloyl-4-chloro-3-(2-fluoro-6-hydroxyphenyl)-12-oxo-6,6a,7,8,9,10-hexahydro-12H-pyrazino[2,1-c]pyrido[3,4-f][1,4]oxazepin-1-yl)-3,3-dimethylbutanamide]: 113 nM and more than 30000 nM.
As to `C=CC(=O)N1CCN2C(=O)c3c(N[C@H]4[C@@H]5CN(C)C[C@@H]54)nc(-c4c(O)cccc4F)c(Cl)c3OC[C@H]2C1` [Z46, (6aR)-8-acryloyl-4-chloro-3-(2-fluoro-6-hydroxyphenyl)-1-(((1R,5S,6s)-3-methyl-3-azabicyclo[3.1.0]hexan-6-yl)amino)-6,6a,7,8,9,10-hexahydro-12H-pyrazino[2,1-c]pyrido[3,4-f][1,4]oxazepin-12-one], the figures for the half-maximal inhibitory concentration (IC50) in test [1] and in test [3] were 460 nM and more than 20000 nM, respectively.
As for `C=CC(=O)N1CCN2C(=O)c3c(-c4cn(C)nc4C)nc(-c4c(O)cccc4F)c(Cl)c3OC[C@H]2C1` [Z74, (6aR)-8-acryloyl-4-chloro-1-(1,3-dimethyl-1H-pyrazol-4-yl)-3-(2-fluoro-6-hydroxyphenyl)-6,6a,7,8,9,10-hexahydro-12H-pyrazino[2,1-c]pyrido[3,4-f][1,4]oxazepin-12-one], the concentration for half-maximal inhibition (IC50) in test [1] (Homo sapiens, NCI-H358, 120 h) was 324 nM; in test [3] (Homo sapiens, A549, 120 h) it was more than 30000 nM.
Regarding `C=CC(=O)N1CCN2C(=O)c3c(N4C[C@@H](C)O[C@@H](C)C4)nc(-c4c(O)cccc4F)c(Cl)c3OC[C@H]2C1` [Z247, (6aR)-8-acryloyl-1-((2S,6R)-2,6-dimethylmorpholino)-4-chloro-3-(2-fluoro-6-hydroxyphenyl)-6,6a,7,8,9,10-hexahydro-12H-pyrazino[2,1-c]pyrido[3,4-f][1,4]oxazepin-12-one], the concentration for half-maximal inhibition (IC50) was determined as 41 nM in test [1] (Homo sapiens, NCI-H358, 120 h) and 47 nM in test [2].

For the origin of these results see patent US20230203060A1 (GENFLEET THERAPEUTICS (SHANGHAI) INC., priority 2020, published 2023).
